In this data set the test system is CCRIS mutagenicity, Ames/micronucleus/aberration tests. Kind of data set: CCRIS mutagenicity studies.
The mark [1] stands for this setting: Test System: AMES SALMONELLA TYPHIMURIUM, Strain/Indicator: TA98, Metabolic Activation: NONE, Method: STANDARD PLATE.
[2] abbreviates: Test System: AMES SALMONELLA TYPHIMURIUM, Strain/Indicator: TA100, Metabolic Activation: NONE, Method: STANDARD PLATE.

Activity calls are given as the source filed them. How the calls were made is not given here.

From PubChem BioAssay AID1259407 (Chemical Carcinogenesis Research Information System (CCRIS), 2018) come the findings set out here.

Take `Oc1cccc(O)c1`: the mutagenic call runs as follows: (End Point: In vitro chromosomal aberrations, Test System: Chinese hamster lung (CHL/IU) cells, Metabolic Activation: Rat, Liver, S9, Phenobarbital and 5,6-benzoflavone) “active; positive (structural changes and ploidy). weak response”; (End Point: MORPHOLOGICAL TRANSFORMATION, Test System: SYRIAN HAMSTER EMBRYO CELLS (SHE)) “inactive; negative”; (End Point: MORPHOLOGICAL TRANSFORMATION, Test System: SYRIAN HAMSTER EMBRYO CELLS (SHE), Metabolic Activation: NONE) “inactive; negative”; (Test System: AMES SALMONELLA TYPHIMURIUM, Strain/Indicator: TA97, Metabolic Activation: NONE, Method: PREINCUBATION) “inactive; negative”; (Test System: AMES SALMONELLA TYPHIMURIUM, Strain/Indicator: TA97, Metabolic Activation: RAT, LIVER, S-9, PHENOBARBITAL, Method: PREINCUBATION) “inactive; negative”; (Test System: AMES SALMONELLA TYPHIMURIUM, Strain/Indicator: TA98, Metabolic Activation: HAMSTER, LIVER, S-9, AROCLOR 1254 (10%), Method: PREINCUBATION) “inactive; negative”. Also, the mutagenic call (Test System: AMES SALMONELLA TYPHIMURIUM, Strain/Indicator: TA98, Metabolic Activation: NONE) was “inactive; negative”; the mutagenic call (Test System: AMES SALMONELLA TYPHIMURIUM, Strain/Indicator: TA98, Metabolic Activation: NONE, Method: PREINCUBATION) was “inactive; negative”; the mutagenic call (Test System: AMES SALMONELLA TYPHIMURIUM, Strain/Indicator: TA98, Metabolic Activation: RAT, LIVER, S-9, AROCLOR 1254 (10%), Method: PREINCUBATION) is “inactive; negative”; the mutagenic call (Test System: AMES SALMONELLA TYPHIMURIUM, Strain/Indicator: TA98, Metabolic Activation: RAT, LIVER, S-9, PHENOBARBITAL, Method: PREINCUBATION) is “inactive; negative”; the mutagenic call (Test System: AMES SALMONELLA TYPHIMURIUM, Strain/Indicator: TA98, Metabolic Activation: RAT, LIVER, S-9, SODIUM PHENOBARBITAL AND 5,6-BENZOFLAVONE, Method: PREINCUBATION) was “inactive; negative”; the mutagenic call (Test System: AMES SALMONELLA TYPHIMURIUM, Strain/Indicator: TA98, Metabolic Activation: RAT, LIVER, S-9, Method: STANDARD PLATE) is “active; positive”. Further, the mutagenic call by setting is: (Test System: AMES SALMONELLA TYPHIMURIUM, Strain/Indicator: TA98, Metabolic Activation: S-9) “inactive; negative”; (Test System: AMES SALMONELLA TYPHIMURIUM, Strain/Indicator: TA100, Metabolic Activation: HAMSTER, LIVER, S-9, AROCLOR 1254 (10%), Method: PREINCUBATION) “inactive; negative”; (Test System: AMES SALMONELLA TYPHIMURIUM, Strain/Indicator: TA100, Metabolic Activation: NONE, Method: PREINCUBATION) “inactive; negative”; (Test System: AMES SALMONELLA TYPHIMURIUM, Strain/Indicator: TA100, Metabolic Activation: RAT, LIVER, S-9, AROCLOR 1254 (10%), Method: PREINCUBATION) “inactive; negative”; (Test System: AMES SALMONELLA TYPHIMURIUM, Strain/Indicator: TA100, Metabolic Activation: RAT, LIVER, S-9, SODIUM PHENOBARBITAL AND 5,6-BENZOFLAVONE, Method: PREINCUBATION) “inactive; negative”; (Test System: AMES SALMONELLA TYPHIMURIUM, Strain/Indicator: TA102, Metabolic Activation: NONE, Method: PREINCUBATION) “inactive; negative”. For the same compound, the mutagenic call (Test System: AMES SALMONELLA TYPHIMURIUM, Strain/Indicator: TA102, Metabolic Activation: RAT, LIVER, S-9, SODIUM PHENOBARBITAL AND 5,6-BENZOFLAVONE, Method: PREINCUBATION) was “inactive; negative”; the mutagenic call (Test System: AMES SALMONELLA TYPHIMURIUM, Strain/Indicator: TA104, Metabolic Activation: NONE, Method: PREINCUBATION) was “inactive; negative”; the mutagenic call (Test System: AMES SALMONELLA TYPHIMURIUM, Strain/Indicator: TA104, Metabolic Activation: RAT, LIVER, S-9, SODIUM PHENOBARBITAL AND 5,6-BENZOFLAVONE, Method: PREINCUBATION) was “inactive; negative”; the mutagenic call (Test System: AMES SALMONELLA TYPHIMURIUM, Strain/Indicator: TA1535, Metabolic Activation: HAMSTER, LIVER, S-9, AROCLOR 1254 (10%), Method: PREINCUBATION) was “inactive; negative”; the mutagenic call (Test System: AMES SALMONELLA TYPHIMURIUM, Strain/Indicator: TA1535, Metabolic Activation: NONE, Method: PREINCUBATION) was “inactive; negative”; the mutagenic call (Test System: AMES SALMONELLA TYPHIMURIUM, Strain/Indicator: TA1535, Metabolic Activation: RAT, LIVER, S-9, AROCLOR 1254 (10%), Method: PREINCUBATION) is “inactive; negative”. For the same compound, the mutagenic call is, setting by setting: (Test System: AMES SALMONELLA TYPHIMURIUM, Strain/Indicator: TA1535, Metabolic Activation: RAT, LIVER, S-9, SODIUM PHENOBARBITAL AND 5,6-BENZOFLAVONE, Method: PREINCUBATION) “inactive; negative”; (Test System: AMES SALMONELLA TYPHIMURIUM, Strain/Indicator: TA1537, Metabolic Activation: HAMSTER, LIVER, S-9, AROCLOR 1254 (10%), Method: PREINCUBATION) “inactive; negative”; (Test System: AMES SALMONELLA TYPHIMURIUM, Strain/Indicator: TA1537, Metabolic Activation: NONE, Method: PREINCUBATION) “inactive; negative”; (Test System: AMES SALMONELLA TYPHIMURIUM, Strain/Indicator: TA1537, Metabolic Activation: RAT, LIVER, S-9, AROCLOR 1254 (10%), Method: PREINCUBATION) “inactive; negative”; (Test System: AMES SALMONELLA TYPHIMURIUM, Strain/Indicator: TA1537, Metabolic Activation: RAT, LIVER, S-9, SODIUM PHENOBARBITAL AND 5,6-BENZOFLAVONE, Method: PREINCUBATION) “inactive; negative”; (Test System: E. COLI, Strain/Indicator: B/R WP2 (TRP-HCR-), Metabolic Activation: RAT, LIVER, S-9, Method: STANDARD PLATE) “active; positive”. Besides, the mutagenic call (Test System: E. COLI, Strain/Indicator: WP2UVRA/PKM101, Metabolic Activation: NONE, Method: PREINCUBATION) is “inactive; negative”; the mutagenic call (Test System: E. COLI, Strain/Indicator: WP2UVRA/PKM101, Metabolic Activation: RAT, LIVER, S-9, SODIUM PHENOBARBITAL AND 5,6-BENZOFLAVONE, Method: PREINCUBATION) was “inactive; negative”; the mutagenic call (Test System: E. COLI, Strain/Indicator: WP2UVRA, Metabolic Activation: NONE, Method: PREINCUBATION) is “inactive; negative”; the mutagenic call (Test System: E. COLI, Strain/Indicator: WP2UVRA, Metabolic Activation: RAT, LIVER, S-9, SODIUM PHENOBARBITAL AND 5,6-BENZOFLAVONE, Method: PREINCUBATION) was “inactive; negative”; the mutagenic call (Test System: MOUSE LYMPHOMA, Strain/Indicator: L5178Y (TK+/TK-), Metabolic Activation: NONE, Method: SUSPENSION/PLATE) was “active; positive”.
With `CCCNc1snc2ccccc12`, the mutagenic call runs as follows: under setting [1], “inactive; negative”; (Test System: AMES SALMONELLA TYPHIMURIUM, Strain/Indicator: TA98, Metabolic Activation: S-9, Method: STANDARD PLATE) “inactive; negative”; under setting [2], “inactive; negative”; (Test System: AMES SALMONELLA TYPHIMURIUM, Strain/Indicator: TA100, Metabolic Activation: S-9, Method: STANDARD PLATE) “inactive; negative”; (Test System: AMES SALMONELLA TYPHIMURIUM, Strain/Indicator: TA1535, Metabolic Activation: NONE, Method: STANDARD PLATE) “inactive; negative”; (Test System: AMES SALMONELLA TYPHIMURIUM, Strain/Indicator: TA1535, Metabolic Activation: S-9, Method: STANDARD PLATE) “inactive; negative”. In addition, the mutagenic call (Test System: AMES SALMONELLA TYPHIMURIUM, Strain/Indicator: TA1537, Metabolic Activation: NONE, Method: STANDARD PLATE) was “inactive; negative” and the mutagenic call (Test System: AMES SALMONELLA TYPHIMURIUM, Strain/Indicator: TA1537, Metabolic Activation: S-9, Method: STANDARD PLATE) was “inactive; negative”.
As for `Oc1ccc2ccc3c4c(ccc3c2c1)[C@@H](O)[C@H](O)C=C4`, the mutagenic call is, setting by setting: under setting [1], “inactive; negative”; (Test System: AMES SALMONELLA TYPHIMURIUM, Strain/Indicator: TA98, Metabolic Activation: RAT, LIVER, S-9, AROCLOR 1254, Method: STANDARD PLATE) “active; positive”; under setting [2], “inactive; negative”; (Test System: AMES SALMONELLA TYPHIMURIUM, Strain/Indicator: TA100, Metabolic Activation: RAT, LIVER, S-9, AROCLOR 1254, Method: STANDARD PLATE) “active; positive”.
Take `CC1(C)C[C@H]2C=C(C=O)[C@]3(C=O)C[C@]3(C)[C@H]2C1`: the mutagenic call is “active; positive” under setting [1]; “active; positive” under setting [2]; “active; positive” (Test System: AMES SALMONELLA TYPHIMURIUM, Strain/Indicator: TA2637, Metabolic Activation: NONE, Method: STANDARD PLATE); “active; positive” (Test System: CHINESE HAMSTER V-79, Strain/Indicator: V-79/6-THIOGUANINE (HGPRT), Metabolic Activation: NONE).
